#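 How tested: cells in 96-well plates exposed to compound for 48 hours at five concentrations. GI50: concentration for 50% inhibition of growth.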 The source made the active and inactive calls. No stated cut-off is given here; in the data, active = GI50 up to about 1.1 µM and inactive = higher.
# What was measured:
# Assay in all cases: DTP human tumour cell line panel, 48 h
# A549 = test system: A549
# ACHN = test system: ACHN
# CCRF-CEM = test system: CCRF-CEM
# DMS-114 = test system: DMS-114
# HCT-116 = test system: HCT-116
# HCT-15 = test system: HCT-15
# HL-60 = test system: HL-60
# HOP-62 = test system: HOP-62
# IGROV-1 = test system: IGROV-1
# MCF7 = test system: MCF7
# MDA-MB-231 = test system: MDA-MB-231
# MDA-MB-435 = test system: MDA-MB-435
# Malme-3M = test system: Malme-3M
# NCI-H226 = test system: NCI-H226
# OVCAR-3 = test system: OVCAR-3
# OVCAR-4 = test system: OVCAR-4
# SF-268 = test system: SF-268
# SK-MEL-2 = test system: SK-MEL-2
# SNB-19 = test system: SNB-19
# UACC-62 = test system: UACC-62
Structure (SMILES),GI50 (A549),GI50 (ACHN),GI50 (CCRF-CEM),GI50 (DMS-114),GI50 (HCT-116),GI50 (HCT-15),GI50 (HL-60),GI50 (HOP-62),GI50 (IGROV-1),GI50 (MCF7),GI50 (MDA-MB-231),GI50 (MDA-MB-435),GI50 (Malme-3M),GI50 (NCI-H226),GI50 (OVCAR-3),GI50 (OVCAR-4),GI50 (SF-268),GI50 (SK-MEL-2),GI50 (SNB-19),GI50 (UACC-62)
O=P1(NCCCl)OCCC(OO)N1CCCl (stereo not given),> 71.9 µM (inactive),14.4 µM (inactive),9.44 µM (inactive),31.6 µM (inactive),15.8 µM (inactive),18 µM,6.82 µM (inactive),52.4 µM (inactive),> 100 µM (inactive),24.9 µM (inactive),> 100 µM (inactive),56.1 µM (inactive),17.3 µM (inactive),> 100 µM (inactive),23.2 µM (inactive),20.5 µM (inactive),35.2 µM (inactive),37.7 µM (inactive),> 52 µM (inactive),21.1 µM (inactive)
C=C(CN(C)C)C(=O)c1ccc(OC)cc1,18.2 µM (inactive),1.12 µM (active),0.186 µM (active),3.7 µM (inactive),1.58 µM (inactive),1.76 µM,0.198 µM (active),21.7 µM (inactive),10.7 µM (inactive),2.77 µM (inactive),11.6 µM (inactive),10.5 µM (inactive),1.48 µM (inactive),6.76 µM (inactive),2.77 µM (inactive),5.26 µM (inactive),6.05 µM (inactive),4.61 µM (inactive),20 µM (inactive),9.33 µM (inactive)
CNC=O,> 10000 µM (inactive),> 10000 µM (inactive),> 10000 µM (inactive),> 5160 µM (inactive),> 10000 µM (inactive),> 10000 µM,> 10000 µM (inactive),> 3980 µM (inactive),> 10000 µM (inactive),> 10000 µM (inactive),> 10000 µM (inactive),> 10000 µM (inactive),> 10000 µM (inactive),> 10000 µM (inactive),> 9310 µM (inactive),> 10000 µM (inactive),> 10000 µM (inactive),> 10000 µM (inactive),> 10000 µM (inactive),> 8090 µM (inactive)

# Source: ChEMBL document CHEMBL1201862, “PubChem BioAssay data set” (2004)
